Consider three molecules from patent US20090099253A1, “Internally Masked Neopentyl Sulfonyl Ester Cyclization Release Prodrugs of Acamprosate, Compositions Thereof, and Methods of Use” (XenoPort, Inc., priority 2007, published 2009).

For data set [1] the following is noted: rat, in vivo.
Experimental: Acamprosate or acamprosate prodrug was administered by oral gavage to groups of four to six adult male Sprague-Dawley rats (about 250 g). Animals were conscious at the time of the experiment. Acamprosate or acamprosate prodrug was orally (po) or colonically (ic) administered in 3.4% Phosal or 5% Phosal (53 MCT in 7.5% Tween 80 in 50 mM sodium phosphate buffer, pH 6.8) at a dose of 70 mg-equivalents acamprosate per kg body weight.
The percent relative bioavailability (F %) of acamprosate was determined by comparing the area under the acamprosate concentration vs time curve (AUC) following oral or colonic administration of an acamprosate prodrug or acamprosate with the AUC of the acamprosate concentration vs time curve following intravenous administration of acamprosate on a dose normalized basis.
Data set [2] concerns patients being treated for alcohol withdrawal. As to conditions: cited from earlier work.
Another data set relates to cocaine conditioned mice. Conditions: 100 mg/kg for 3 days; cited from earlier work.
For data set [3] the following is noted: cited from earlier work.
The next data set concerns individual patients. As to conditions: doses from about 1,000 mg/day to about 2,000 mg/day; cited from earlier work.
Data set [4] concerns patients with alcohol dependence. As to conditions: patients with alcohol dependence abstinent at initiation of treatment; cited from earlier work.

As usually defined, the melting point is the temperature, or range, at which the solid turns liquid.

The molecule `CC(=O)NCCCS(=O)(=O)OCC1(C)CCC(=O)O1` (racemic) [Compound 6, rac-(2-Methyl-5-oxo-2-2,3,4-trihydrofuryl)methyl [3-(acetylamino)propyl]sulfonate] returned a melting point of 63.1 to 64.8 °C.
As for `CC(=O)NCCCS(=O)(=O)OCC(C)(C)[C@@H]1COC(=O)O1` [Compound 12, 2-((4R)-2-Oxo(1,3-dioxolan-4-yl))-2-methylpropyl[3-(acetylamino)propyl]sulfonate], the “acamprosate colonic bioavailability relative to the acamprosate colonic bioavailability of an equivalent dose of acamprosate itself” value in data set [1] is given as “at least 5 times”.
For `CC(=O)NCCCS(=O)(=O)O` [acamprosate, 3-(Acetylamino)propylsulfonic acid], the effect on sleep result in data set [2] was “improve sleep”. In the data set on cocaine conditioned mice, the “effect on relapse-like behavior” value is “attenuated relapse-like behavior”. Moreover, in data set [3] (doses of about 1-2 gm per day), the steady-state plasma concentration is 370 to 640 ng/mL and the “time post-dose at which steady-state plasma concentration occurs” value was 3 to 8 h. Moreover, in data set [3] (humans, oral), the oral bioavailability result is reported as “about 11%”. For the same molecule, the “treatment of tardive dyskinesia, dystonia, and tic” value in the data set with individual patients is “effective in treating tardive dyskinesia, dystonia, and tic”. The “maintaining abstinence from alcohol” value in data set [4] is given as “effective for maintaining abstinence from alcohol”.
